Assay results as given in the supplement of paper PMC6045584.
± gives the standard deviation of the averaged measurements.

How the values were obtained:
[1] = compound: Cn1cc(C2=Nc3cc(NC(=O)C(N)C4CCCCC4)cc4c3C2=CNNC4=O)cn1; assay: area under dose-response curve of surviving fraction (unscaled, Aref=0) (surviving fraction x log10(nM)); higher = more resistant; conditions: exposure time: 5 days; dose range 0.5-1000 nM
How it was run: (§1)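 Three screens per tumour cell line were run in 384-well plates at eight inhibitor concentrations from 0.5 to 1000 nM over five days. Surviving fractions, from CellTiter-Glo luminescence normalised to DMSO-only wells, were fitted with 3-parameter logistic curves in the drc R package. The reported area under the curve is the unscaled activity area. It spans log10 dose, and Aref is 0.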

[2] = compound: CCCCCCCCCCCCCCCC(=O)Nc1ccn([C@@H]2O[C@H](CO)[C@@H](O)[C@@H]2C#N)c(=O)n1 [SAPACITABINE]; assay: as above; conditions: exposure time: 5 days; dose range 0.5-1000 nM
How it was run: as §1

[3] = compound: C=CC(=O)Nc1cc2c(Nc3ccc(F)c(Cl)c3)ncnc2cc1OCCCN1CCOCC1 [CANERTINIB]; assay: as above; conditions: exposure time: 5 days; dose range 0.5-1000 nM
How it was run: as §1

[4] = compound: CC[C@@H]1C(=O)N(C)c2cnc(Nc3ccc(C(=O)NC4CCN(C)CC4)cc3OC)nc2N1C1CCCC1 [BI-2536]; assay: as above; conditions: exposure time: 5 days; dose range 0.5-1000 nM
How it was run: as §1

[5] = compound: CN(C)C/C=C/C(=O)Nc1cc2c(Nc3ccc(F)c(Cl)c3)ncnc2cc1O[C@H]1CCOC1 [AFATINIB]; assay: surviving fraction relative to DMSO-only wells; higher = less growth inhibition; conditions: exposure time: 5 days
How it was run: (§2)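 Surviving fraction was calculated by normalising CellTiter-Glo luminescence to the median of DMSO-only wells. Tumour cell lines in log phase were seeded in 384-well plates at 250–500 cells per well, and 24 hours later were exposed continuously for five days to inhibitors at 0.5, 1, 5, 10, 50, 100, 500 and 1000 nM.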

[6] = compound: CC1(C)CC(=O)c2c(C(F)(F)F)nn(-c3ccc(C(N)=O)c(N[C@H]4CC[C@H](OC(=O)CN)CC4)c3)c2C1 [SNX-5422]; assay: as above; conditions: exposure time: 5 days
How it was run: as §2

Test System	area under dose-response curve [1]	area under dose-response curve [2]	area under dose-response curve [3]	area under dose-response curve [4]	surviving fraction ([5]; 0.5 nM)	surviving fraction ([5]; 1 nM)	surviving fraction ([5]; 5 nM)	surviving fraction ([5]; 10 nM)	surviving fraction ([5]; 50 nM)	surviving fraction ([5]; 100 nM)	surviving fraction ([5]; 500 nM)	surviving fraction ([5]; 1000 nM)	surviving fraction ([6]; 0.5 nM)	surviving fraction ([6]; 1 nM)	surviving fraction ([6]; 5 nM)	surviving fraction ([6]; 10 nM)	surviving fraction ([6]; 50 nM)	surviving fraction ([6]; 100 nM)	surviving fraction ([6]; 500 nM)	surviving fraction ([6]; 1000 nM)
HCT15 LARGE INTESTINE	3.4	1.34	2.73	1.88	1.12 ± 0.03	1.05 ± 0.02	1.04 ± 0.064	1.05 ± 0.027	1.1 ± 0.052	1.06 ± 0.068	0.97 ± 0.081	0.632 ± 0.063	1.05 ± 0.018	1.03 ± 0.029	1.06 ± 0.051	1.09 ± 0.022	0.77 ± 0.12	0.303 ± 0.03	0.0797 ± 0.0015	0.074 ± 0.009
SKBR3 BREAST	2.39	2.23	1.75	0.991	0.866 ± 0.033	0.699 ± 0.049	0.322 ± 0.015	0.265 ± 0.013	0.167 ± 0.011	0.131 ± 0.007	0.119 ± 0.0076	0.122 ± 0.006	0.866 ± 0.051	0.932 ± 0.25	0.93 ± 0.068	0.841 ± 0.051	0.439 ± 0.024	0.432 ± 0.035	0.192 ± 0.01	0.181 ± 0.002
ZR751 BREAST	2.71	2.9	2.8	2.69	1.14 ± 0.15	0.982 ± 0.17	0.979 ± 0.058	0.926 ± 0.13	0.746 ± 0.097	0.87 ± 0.1	0.671 ± 0.083	0.536 ± 0.068	1.04 ± 0.12	1.45 ± 0.57	1.08 ± 0.11	1.34 ± 0.18	0.652 ± 0.071	0.513 ± 0.036	0.218 ± 0.024	0.217 ± 0.017
CAL51 BREAST	2.86	2.32	3.08	0.68	0.97 ± 0.048	1.02 ± 0.022	1.002 ± 0.0031	0.977 ± 0.033	1.04 ± 0.019	1.02 ± 0.028	0.963 ± 0.085	0.682 ± 0.06	0.902 ± 0.075	0.973 ± 0.016	1.02 ± 0.036	1 ± 0.034	0.261 ± 0.036	0.077 ± 0.0036	0.0237 ± 0.00058	0.0263 ± 0.0015
MHM BONE	2.98	2.69	3.2	2.08	1.022 ± 0.0067	1 ± 0.018	1.02 ± 0.016	1 ± 0.03	1.07 ± 0.028	1.03 ± 0.016	0.961 ± 0.041	0.883 ± 0.022	1.01 ± 0.018	1.04 ± 0.015	1.04 ± 0.023	1.06 ± 0.013	1.02 ± 0.015	0.635 ± 0.047	0.186 ± 0.0096	0.149 ± 0.0076
MDAMB436 BREAST	2.31	2.05	2.86	1.46	0.924 ± 0.014	0.974 ± 0.078	0.922 ± 0.05	0.905 ± 0.0097	0.996 ± 0.063	0.892 ± 0.035	0.763 ± 0.06	0.647 ± 0.029	0.91 ± 0.056	0.873 ± 0.066	0.892 ± 0.044	0.903 ± 0.12	0.471 ± 0.016	0.305 ± 0.0098	0.316 ± 0.013	0.326 ± 0.011
HSSYII SYNOVIAL	1.67	1.36	2.66	0.796	0.981 ± 0.053	0.965 ± 0.1	0.941 ± 0.035	0.984 ± 0.044	0.94 ± 0.024	0.922 ± 0.064	0.635 ± 0.019	0.379 ± 0.017	0.976 ± 0.035	0.979 ± 0.042	1.09 ± 0.04	0.977 ± 0.0066	0.23 ± 0.015	0.152 ± 0.0056	0.0738 ± 0.003	0.0662 ± 0.0051
HUO3N1 BONE	2.88	2.73	3.18	1.56	1.03 ± 0.034	1 ± 0.019	1.06 ± 0.027	1.04 ± 0.068	1.03 ± 0.031	0.959 ± 0.017	0.824 ± 0.028	0.631 ± 0.034	0.99 ± 0.02	1.03 ± 0.021	1.07 ± 0.032	1.1 ± 0.06	0.767 ± 0.023	0.503 ± 0.026	0.391 ± 0.02	0.319 ± 0.0095
HOSMNG BONE	3.09	3.25	3.4	1.32	0.944 ± 0.077	0.974 ± 0.04	0.98 ± 0.021	0.915 ± 0.11	1.04 ± 0.054	1.02 ± 0.13	1.06 ± 0.048	0.991 ± 0.088	1.02 ± 0.017	1 ± 0.036	1.01 ± 0.04	0.973 ± 0.018	0.964 ± 0.084	0.299 ± 0.061	0.12 ± 0.012	0.108 ± 0.0047
KPD BONE	2.3	2.81	3.06	1.5	0.964 ± 0.051	0.978 ± 0.045	1.04 ± 0.066	0.976 ± 0.051	1.08 ± 0.06	0.888 ± 0.034	0.65 ± 0.056	0.354 ± 0.014	1 ± 0.015	1.03 ± 0.07	1.02 ± 0.054	0.954 ± 0.026	0.265 ± 0.0056	0.109 ± 0.004	0.0673 ± 0.0015	0.0643 ± 0.0067
HS578T BREAST	2.39	2.8	2.92	0.912	1.01 ± 0.096	0.937 ± 0.017	1.08 ± 0.13	1.12 ± 0.039	1.17 ± 0.13	1.02 ± 0.052	0.662 ± 0.054	0.243 ± 0.048	1.07 ± 0.13	0.93 ± 0.099	0.871 ± 0.056	0.992 ± 0.22	0.387 ± 0.044	0.466 ± 0.021	0.298 ± 0.037	0.245 ± 0.029
PCI30 HEADNECK	2.65	2.94	2.01	1.08	1.01 ± 0.1	0.94 ± 0.073	0.616 ± 0.019	0.459 ± 0.0087	0.4 ± 0.022	0.358 ± 0.035	0.241 ± 0.063	0.064 ± 0.011	1.08 ± 0.073	1.06 ± 0.086	1.13 ± 0.041	1.17 ± 0.14	0.716 ± 0.05	0.316 ± 0.065	0.0417 ± 0.0046	0.039 ± 0.001
SUM159 BREAST	3.54	2.81	3.11	1.81	1.07 ± 0.02	1.03 ± 0.061	1.07 ± 0.023	0.942 ± 0.13	0.943 ± 0.15	0.886 ± 0.27	0.896 ± 0.23	0.867 ± 0.27	1.11 ± 0.11	1.13 ± 0.098	1.16 ± 0.17	1.15 ± 0.17	0.6 ± 0.084	0.316 ± 0.015	0.064 ± 0.0036	0.0623 ± 0.0015
SUM149 BREAST	1.97	1.31	1.76	0.784	1.03 ± 0.076	1.05 ± 0.033	0.703 ± 0.12	0.573 ± 0.089	0.481 ± 0.056	0.439 ± 0.013	0.4053 ± 0.004	0.339 ± 0.044	0.982 ± 0.046	0.986 ± 0.14	1.09 ± 0.1	0.951 ± 0.097	0.0727 ± 0.0076	0.082 ± 0.0095	0.0233 ± 0.0021	0.0287 ± 0.0015
U2OS BONE	2.85	2.92	3.13	1.57	1.075 ± 0.001	1.05 ± 0.044	1.06 ± 0.013	1.02 ± 0.024	1.05 ± 0.0055	1.04 ± 0.056	0.838 ± 0.021	0.646 ± 0.0085	1.04 ± 0.019	1.06 ± 0.04	1.08 ± 0.015	1.06 ± 0.041	0.644 ± 0.018	0.257 ± 0.021	0.066 ± 0.0035	0.0757 ± 0.0023
CAL120 BREAST	2.8	2.46	3.01	0.616	0.955 ± 0.035	0.96 ± 0.0041	0.968 ± 0.035	0.928 ± 0.013	0.908 ± 0.032	0.852 ± 0.029	0.671 ± 0.01	0.471 ± 0.038	0.993 ± 0.019	0.946 ± 0.034	0.962 ± 0.057	0.875 ± 0.057	0.149 ± 0.013	0.132 ± 0.0094	0.083 ± 0.0092	0.0862 ± 0.0052
CASKI CERVIX	2.04	2.91	1.85	0.43	0.715 ± 0.055	0.522 ± 0.028	0.409 ± 0.041	0.274 ± 0.015	0.259 ± 0.0076	0.223 ± 0.006	0.049 ± 0.007	0.02 ± 0.0017	0.913 ± 0.016	0.937 ± 0.021	0.932 ± 0.049	0.829 ± 0.074	0.119 ± 0.02	0.0603 ± 0.0035	0.031 ± 0.0036	0.033
MCF7 BREAST	2.85	2.58	2.76	1.8	0.944 ± 0.025	0.905 ± 0.028	0.955 ± 0.017	0.942 ± 0.032	1.01 ± 0.035	1.08 ± 0.053	0.986 ± 0.073	0.953 ± 0.023	0.9 ± 0.094	0.925 ± 0.068	0.94 ± 0.066	0.906 ± 0.07	0.627 ± 0.02	0.465 ± 0.011	0.303 ± 0.015	0.321 ± 0.01
